These results are taken from ChEMBL document CHEMBL1201862, “PubChem BioAssay data set” (2004).

Holding throughout (test): NCI-60 cell line screen, 48 h
Assay [1] concerns CCRF-CEM.
The subject of assay [2] is MDA-MB-435.
The subject of assay [3] is SNB-75.
Assay [4] has as its system OVCAR-4.
The test system of assay [5] is 786-0.
The test system of assay [6] is SF-268.
In assay [7] the test system is MDA-MB-231.
The subject of assay [8] is PC-3.
The test system of assay [9] is EKVX.
Assay [10] deals with BT-549.
For assay [11], the system named is NCI-H460.
The subject of assay [12] is K562.
For assay [13], the system named is OVCAR-3.
In assay [14] the test system is NCI-H226.
The test system of assay [15] is A549.
Assay [16] relates to HL-60.
Assay [17] has as its system SNB-19.
For assay [18], the system named is RXF 393.
Assay [19] has as its system NCI-H522.
For assay [20], the system named is RPMI-8226.

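Step 1: Grow cells in 96-well plates. Step 2: Expose to compound for 48 hours at 5 concentrations. Step 3: Interpolate endpoints linearly; if unreached, use highest concentration. GI50 = concentration required for 50% inhibition of growth.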 Activity calls are given as the source filed them. Rule as the data show it: active = GI50 up to about 1.1 µM and inactive = higher.

As to `CCNC(=S)/N=c1\sc(NCC)nc2sc3c(c12)CCN(N1CCc2c(sc4nc(NCC)s/c(=N\C(=S)NCC)c24)C1)C3`, the GI50 in assay [1] is 41.9 µM (inactive); in [2], 97.5 µM (inactive); in assay [3], > 100 µM (inactive); in [4], 86.1 µM (inactive); in [5] it was 26.6 µM (inactive); in assay [6], > 100 µM (inactive). Besides, the GI50 in [7] was 29.5 µM (inactive); in assay [8], > 100 µM (inactive); in assay [9], > 100 µM (inactive); in assay [10], > 100 µM (inactive); in assay [11], 76.6 µM (inactive); in assay [12], 27.7 µM (inactive). In addition, the GI50 in [13] was > 100 µM (inactive); in [14] it was 24.9 µM (inactive); in [15], 82.4 µM (inactive); in assay [16], 98.2 µM (inactive); in [17], 74 µM (inactive); in assay [18], 8.93 µM (inactive). In addition, the GI50 in [19] is 65.6 µM (inactive).
As to `COc1ccccc1[C@@H]1CCC2CC[C@@H](c3ccccc3OC)[N+]21Cc1ccccc1` (some centres not stated), the GI50 was 1.73 µM (inactive) in assay [1]; 0.585 µM (active) in assay [2]; 2.15 µM (inactive) in assay [3]; 1.64 µM (inactive) in assay [4]; 1.94 µM (inactive) in assay [5]; 3.64 µM (inactive) in assay [6]. The GI50 was 1.95 µM (inactive) in [7]; 1.25 µM (inactive) in assay [8]; 0.211 µM (active) in assay [20]; 0.223 µM (active) in assay [9]; 0.893 µM (active) in [10]; 0.344 µM (active) in assay [12]. For the same compound, the GI50 was 0.887 µM (active) in assay [13]; 1.39 µM (inactive) in assay [14]; 1.99 µM (inactive) in assay [15]; 0.478 µM (active) in [16]; 0.982 µM (active) in assay [17]; 2 µM (inactive) in [18]. In addition, the GI50 in assay [19] was 1.33 µM (inactive).
As for `Cc1nc(-c2cc3c(ccc4ccccc43)oc2=O)cs1`, the GI50 in assay [1] was > 100 µM (inactive); in assay [2], > 100 µM (inactive); in assay [3] it was 36.6 µM (inactive); in assay [4], 37.7 µM (inactive); in assay [5] it was 39.1 µM (inactive); in assay [6], 35.6 µM (inactive). The GI50 was 70.5 µM (inactive) in assay [7]; 70.8 µM (inactive) in assay [8]; > 100 µM (inactive) in [20]; 35.8 µM (inactive) in assay [9]; 23.7 µM (inactive) in [10]; 91.8 µM (inactive) in [11]. In addition, the GI50 is > 100 µM (inactive) in assay [12]; 66.4 µM (inactive) in assay [14]; > 100 µM (inactive) in [15]; > 100 µM (inactive) in [16]; 33.2 µM (inactive) in assay [17]; 35.8 µM (inactive) in assay [18]. In addition, in assay [19], the GI50 is 35.2 µM (inactive).
Consider `O=C(Cc1nccc2c1[nH]c1ccccc12)OC1C#CCSCC#C/C=C\1` (configuration not stated), for which the GI50 in assay [1] is 38.8 µM (inactive); in assay [2], 75.7 µM (inactive); in assay [4], > 100 µM (inactive); in assay [5], > 100 µM (inactive); in [6], > 100 µM (inactive); in assay [7], > 100 µM (inactive). The GI50 was > 100 µM (inactive) in assay [8]; > 100 µM (inactive) in [20]; 64.4 µM (inactive) in assay [9]; > 100 µM (inactive) in assay [10]; > 100 µM (inactive) in assay [11]; 43 µM (inactive) in [12]. Besides, the GI50 in assay [13] is 95.9 µM (inactive); in assay [14] it was > 100 µM (inactive); in assay [15] it was > 100 µM (inactive); in assay [16] it was 57 µM (inactive); in assay [17], > 100 µM (inactive); in assay [18], > 100 µM (inactive). Also, in assay [19], the GI50 is 44.2 µM (inactive).
In the case of `CCN1CCC(O)(/C=C/c2ccc(OC)cc2)C(C(=O)/C=C/c2ccc(OC)cc2)C1` (configuration not stated), the GI50 was 1.34 µM (inactive) in assay [1]; 6.05 µM (inactive) in assay [2]; 13.3 µM (inactive) in assay [4]; 4.03 µM (inactive) in [5]; 13.8 µM (inactive) in assay [6]; 5.02 µM (inactive) in assay [7]. The GI50 in assay [8] was 11.3 µM (inactive); in [20] it was 2.26 µM (inactive); in assay [9], 13.6 µM (inactive); in assay [10], 15.5 µM (inactive); in assay [11] it was 11.1 µM (inactive); in assay [12], 2.75 µM (inactive). Also, the GI50 in [13] was 14.1 µM (inactive); in [14] it was 16 µM (inactive); in assay [15] it was 16.6 µM (inactive); in assay [16], 3.15 µM (inactive); in assay [17], 15.1 µM (inactive); in [18], 2.37 µM (inactive). In addition, the GI50 in assay [19] was 12.5 µM (inactive).
For the compound `O=C1C(Cl)C2(CC(/C=C/c3ccccc3)=NN2c2cccc(S(=O)(=O)O)c2)N1c1nc2ccccc2s1` (configuration not stated), the GI50 in [1] was 12.4 µM (inactive); in assay [2] it was 21.4 µM (inactive); in [3] it was 15.3 µM (inactive); in assay [4], 16.4 µM (inactive); in assay [5], 17.3 µM (inactive); in assay [6] it was 20 µM (inactive). Also, the GI50 in [7] is 12.2 µM (inactive); in [8] it was 16.1 µM (inactive); in [20] it was 13.8 µM (inactive); in assay [9] it was 19.2 µM (inactive); in [10], 14.8 µM (inactive); in [11] it was 22.8 µM (inactive). Also, the GI50 in [12] is 21.4 µM (inactive); in assay [14] it was 17.7 µM (inactive); in [15], 15.3 µM (inactive); in [16], 14.9 µM (inactive); in assay [17], 25.2 µM (inactive); in assay [18] it was 7.83 µM (inactive). In assay [19], the GI50 was 6.53 µM (inactive).
As for `NC1=C(c2nc(-c3ccccc3)cs2)C(c2ccco2)c2c(c3ccccc3oc2=O)O1` (configuration not stated), the GI50 in assay [1], in [2], in assay [3], in assay [4], in assay [5] and in [6] was > 100 µM (inactive) in each case. Moreover, the GI50 in [7], in [8], in assay [9], in [10], in [11] and in assay [12] was > 100 µM (inactive) each time. In addition, the GI50 was > 100 µM (inactive) in assay [13]; 38.2 µM (inactive) in assay [14]; > 100 µM (inactive) in assay [15]; > 100 µM (inactive) in [16]; > 100 µM (inactive) in [17]; 40.5 µM (inactive) in assay [18]. In assay [19], the GI50 is 76.2 µM (inactive).
In the case of `CCOC(=O)C1(O)C(=O)C2=C3C(=O)OC(C4OC(=O)c5c(c(O)c(O)c(O)c5C31)-c1c(cc(O)c(O)c1O)C(=O)OC1COC(=O)c3cc(O)c(O)c(O)c3-c3c(cc(O)c(O)c3O)C(=O)OC14)[C@@H]2O` (some centres not stated), the GI50 in [1] was 17.2 µM (inactive); in [2], 13 µM (inactive); in assay [4], 17.6 µM (inactive); in assay [5] it was 19.2 µM (inactive); in [6], 22.4 µM (inactive); in assay [7] it was 15.2 µM (inactive). For the same compound, the GI50 in assay [8] is 46 µM (inactive); in [20], 28.5 µM (inactive); in assay [9], 13.4 µM (inactive); in [10] it was 18.8 µM (inactive); in assay [11], 29.3 µM (inactive); in assay [12] it was 20.7 µM (inactive). In addition, the GI50 in [13] was 32.6 µM (inactive); in assay [14], 16.5 µM (inactive); in assay [15], 15.2 µM (inactive); in [16], 19.1 µM (inactive); in assay [17] it was > 100 µM (inactive); in assay [18], 17.5 µM (inactive). Besides, the GI50 in assay [19] is 21 µM (inactive).
With `COC(=O)/N=[N+](\[O-])C(c1ccc(OC)cc1)C1CCCCC1` (configuration not stated), the GI50 in [1] is 2.2 µM (inactive); in [2] it was 5.01 µM (inactive); in assay [3], 5.22 µM (inactive); in assay [4] it was 0.802 µM (active); in assay [5], 3.82 µM (inactive); in assay [6], 4.23 µM (inactive). Also, the GI50 was 3 µM (inactive) in assay [7]; 1.69 µM (inactive) in assay [8]; 0.948 µM (active) in [20]; 0.991 µM (active) in [9]; 8.39 µM (inactive) in assay [10]; 1.39 µM (inactive) in assay [11]. Besides, the GI50 in assay [12] is 2.67 µM (inactive); in assay [13], 6.15 µM (inactive); in [14], 5.16 µM (inactive); in assay [15], 5.07 µM (inactive); in assay [16], 0.787 µM (active); in assay [17] it was 9.53 µM (inactive). Also, the values for the GI50 in [18] and in assay [19] were 9.18 µM (inactive) and 1.03 µM (active), respectively.
For the compound `Oc1cc2c3c(c1)c1cc4c(cc1c[n+]3CC2)OCO4`, the GI50 is 2.84 µM (inactive) in [1]; 5.5 µM (inactive) in [2]; 2.25 µM (inactive) in assay [3]; 3.64 µM (inactive) in assay [4]; 1.08 µM (active) in [5]; 0.224 µM (active) in assay [6]. Also, the GI50 was 2.79 µM (inactive) in [7]; 3 µM (inactive) in [8]; 1.77 µM (inactive) in assay [20]; 7.73 µM (inactive) in [9]; 1.77 µM (inactive) in assay [10]; 2.43 µM (inactive) in [11]. In addition, the GI50 in assay [12] is 1.57 µM (inactive); in assay [13] it was 4.88 µM (inactive); in assay [14], 2.69 µM (inactive); in assay [15] it was 5.71 µM (inactive); in assay [16], 3.97 µM (inactive); in [17], 1.8 µM (inactive). In addition, the figures for the GI50 in assay [18] and in [19] were 24.5 µM (inactive) and 0.492 µM (active), respectively.
